One data set has as its system K562. The experiment in a line: Antiproliferative activity against human K562 cells. Type of data set: functional, cell-based.
The nature of data set [1]: Antiproliferative activity against BCR-ABL1 transfected mouse BA/F3 cells. The format is functional, cell-based. The conditions noted are these: BaF3.
Data set [2] can be described thus: Antiproliferative activity against PDGFRbeta transfected mouse BA/F3 cells. The format is functional, cell-based. The following applies: BaF3.
Data set [3] in a line: Antiproliferative activity against human GIST882 cells. The format is functional, cell-based.
Data set [4] in a line: Antiproliferative activity against mouse M-NFS-60 cells. The format is functional, cell-based.
Data set [5] is described as follows: Antiproliferative activity mouse BA/F3 cells in presence of interleukin 3. Type of data set: functional, cell-based. The following applies: BaF3.
Data set [6] is filed under the species Homo sapiens. Description: Toxicity in chronic CML patient assessed as cytogenetic response. The format is organism-based. The conditions noted are these: in vivo.
The species entered for data set [7] is Homo sapiens. The experiment in a line: Toxicity in chronic CML patient assessed as maximum tolerated dose. Type of data set: organism-based. The conditions noted are these: in vivo.

Some results are limits rather than exact numbers.

With `Cc1cn(-c2cc(NC(=O)c3ccc(C)c(Nc4nccc(-c5cccnc5)n4)c3)cc(C(F)(F)F)c2)cn1` [NILOTINIB], the IC50 was 21 nM in the data set on K562; 25 nM in data set [1]; 62 nM in data set [2]; 151 nM in data set [3]; 838 nM in data set [4]; above 10000 nM in data set [5].
`Cc1ccc(NC(=O)c2ccc(CN3CCN(C)CC3)cc2)cc1Nc1nccc(-c2cccnc2)n1` [IMATINIB]: the IC50 is 244 nM with K562; 678 nM in data set [1]; 39 nM in data set [2]; 108 nM in data set [3]; 358 nM in data set [4]; 9460 nM in data set [5]. Further, the Activity result in the data set filed under Homo sapiens [6] was “Non-toxic”. The MTD in the data set listed under Homo sapiens [7] came to 400 mg.

By IC50 is commonly meant the concentration that inhibits the measured activity by half.

The record behind these values is ChEMBL document CHEMBL1250538 (Bioorg Med Chem, 2010).
